According to US11746110B2, “Alkynyl (hetero) aromatic ring compounds used for inhibiting protein kinase activity” (Shenzhen TargetRx, Inc., priority 2018, dated 2023):

Key:
ABL = ABL (Homo sapiens (Human), UniProt P00519); assay: Biochemical kinase analysis, ABL; conditions: kinase inhibition assay
Description: (§1) Reagents and materials: ABL (ThermoFisher, Cat. No. PV3585), ABL^T315I(Thermo Fisher, Cat. No. PR7429B), Ret (Carna, Cat. No. 08-159-10 ug), RET^V804M, Active (Signalchem, Cat. No. R02-12GG), ATP (Sigma, Cat. No. A7699-1G), DMSO (Sigma, Cat. No. D2650), 96-well plate (Corning, Cat. No. 3365), 384-well plate (Greiner, Cat. No. 784076), buffer solution (Thermo Fisher, Cat. No. PR4876B).
(§2) Compound formulation: The test compounds were dissolved in DMSO to prepare a 20 mM stock solution. Before use, the compounds were diluted in DMSO to 0.1 mM, and diluted into 11 concentrations with a 3-fold gradient. When addition, dilutions of 4-fold final concentration were then made with buffer solution.
(§3) Kinase assay method: After preparing the buffer, the enzyme was mixed with pre-formulated and diluted compounds of different concentrations in duplicate for each concentration, and placed at room temperature for 30 minutes. The corresponding substrate and ATP were added thereto, and reacted at room temperature for 60 minutes (both a negative and a positive control were set). After the reaction, antibody was added for detection, Evnvision detection was carried out after 60 minutes incubation at room temperature, and data was collected. Data analysis and fitting were made according to XLfit5 software.

ABL^T315I = ABL^T315I (Homo sapiens (Human), UniProt P00519, T315I); assay: Biochemical kinase analysis, ABL T315I; conditions: kinase inhibition assay
Description: as §1, §2, §3

Ret = Ret (Homo sapiens (Human), UniProt P07949); assay: Biochemical kinase analysis, Ret; conditions: kinase inhibition assay
Ret, sequence (P07949 29-1114): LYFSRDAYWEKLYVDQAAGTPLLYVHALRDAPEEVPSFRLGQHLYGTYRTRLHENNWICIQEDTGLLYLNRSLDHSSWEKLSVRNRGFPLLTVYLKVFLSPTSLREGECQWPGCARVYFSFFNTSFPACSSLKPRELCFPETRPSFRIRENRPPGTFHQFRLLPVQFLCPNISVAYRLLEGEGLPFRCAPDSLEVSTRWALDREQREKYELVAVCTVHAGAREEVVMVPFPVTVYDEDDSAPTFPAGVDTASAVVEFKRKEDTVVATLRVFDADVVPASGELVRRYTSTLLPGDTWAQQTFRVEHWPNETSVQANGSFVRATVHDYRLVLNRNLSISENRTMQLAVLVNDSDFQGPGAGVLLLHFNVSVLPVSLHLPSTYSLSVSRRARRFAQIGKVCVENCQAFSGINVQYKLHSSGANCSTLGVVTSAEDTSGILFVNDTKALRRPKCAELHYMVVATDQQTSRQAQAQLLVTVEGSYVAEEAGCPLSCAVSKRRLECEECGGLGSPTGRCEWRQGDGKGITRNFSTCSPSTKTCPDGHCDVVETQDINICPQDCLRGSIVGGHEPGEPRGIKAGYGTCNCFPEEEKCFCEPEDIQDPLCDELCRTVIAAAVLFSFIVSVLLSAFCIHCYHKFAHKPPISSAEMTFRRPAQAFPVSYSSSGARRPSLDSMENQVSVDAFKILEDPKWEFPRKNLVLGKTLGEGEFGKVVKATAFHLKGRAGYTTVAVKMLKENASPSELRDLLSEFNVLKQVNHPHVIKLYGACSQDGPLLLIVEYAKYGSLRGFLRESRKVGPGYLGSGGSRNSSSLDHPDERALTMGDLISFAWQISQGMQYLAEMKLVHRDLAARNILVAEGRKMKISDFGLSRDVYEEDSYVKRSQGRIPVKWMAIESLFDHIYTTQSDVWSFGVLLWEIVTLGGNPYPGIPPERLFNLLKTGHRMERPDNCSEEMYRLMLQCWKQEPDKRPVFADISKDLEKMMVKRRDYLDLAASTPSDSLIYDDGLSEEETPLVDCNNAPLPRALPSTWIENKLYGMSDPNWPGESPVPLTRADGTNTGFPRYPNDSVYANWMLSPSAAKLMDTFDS
Description: as §1, §2, §3

RET^V804M = RET^V804M (Homo sapiens (Human), UniProt P07949, V804M); assay: Biochemical kinase analysis, RET V804M; conditions: kinase inhibition assay
RET^V804M, sequence (P07949 29-1114 V804M): as the sequence (P07949 29-1114) above, with V776M counted along it
Description: as §1, §2, §3

Ba/F3 parental cells = assay: Cell proliferation analysis, Ba/F3 parental; type: cell-based; conditions: Mus musculus, BaF3, 72 h; 3 days, CellTiter-Glo, 8 ng/ml IL-3
Description: (§4) The inhibitory effect of the example compounds on Ba/F3 parental, Ba/F3 Bcr-Abl^T315I, K562, Ba/F3 KIF5B-RET, BaF3 FLT3-ITD cell activity was determined.
(§5) Materials and reagents: RPMI-1640 medium (GIBCO, Catalog No. A10491-01), fetal bovine serum (GIBCO, Catalog No. 10099141), antibiotics (Penicillin-Streptomycin), IL-3(PeproTech), promycin; cell lines: Ba/F3 parental, Ba/F3 Bcr-Abl^T315I, Ba/F3 KIF5B-RET, BaF3 FLT3-ITD, (purchased from American type culture collection, ATCC), K562 live cell detection kit CellTiter-Glo4(Promega, Catalog No. G7572), 96-well black wall transparent flat bottom cell culture plate (Corning, Catalog No. 3340).
(§6) Test method: 1. Preparation of cell plate: Ba/F3 parental, Ba/F3 Bcr-Abl^T315I K563, Ba/F3 KIFSB-RET, BaF3 FLT3-ITD cells were respectively seeded in 96-well plates, and 8 ng/ml IL-3 was added to the Ba/F3 cells, and the cell plates were placed in a carbon dioxide incubator and cultured overnight. 2. The test compounds were dissolved in DMSO, 9 compound concentrations were made with a 3.16-fold gradient dilution in triplicate. 3. Treatment of the cells with compounds: The compounds were transferred to the cell plate with a starting concentration of 10 μM. The cell plate was placed in a carbon dioxide incubator for 3 days. 4. Detection: CellTiter-Glo agent was added to the cell plate, and incubated at room temperature for 30 minutes to stabilize the luminous signal. PerkinElmer Envision multi-label analyzer was used for reading, wherein A represents IC50≤50 nM, B represents IC50 is 50-100 nM, C represents IC50 is 100-500 nM, D represents IC50 is 500-1000 nM, […].

K562 cells = assay: Cell proliferation analysis, K562; type: cell-based; conditions: Homo sapiens, K562, 72 h; 3 days, CellTiter-Glo
Description: as §4, §5, §6

Ba/F3 BCR-ABL cells = assay: Cell proliferation analysis, Ba/F3 BCR-ABL; type: cell-based; conditions: Mus musculus, BaF3, 72 h; 3 days, CellTiter-Glo
Description: [Worded in the source for another variant; this variant is reported under the same test.] as §4, §5, §6

[1] = test system: Ba/F3 Bcr-Abl^T315I cells; assay: Cell proliferation analysis, Ba/F3 Bcr-Abl T315I; type: cell-based; conditions: Mus musculus, BaF3, 72 h; 3 days, CellTiter-Glo; read-out: IC50 (nM) Ba/F3 BCR-ABL^T315
Description: as §4, §5, §6

Ba/F3 KIF5B-RET cells = assay: Cell proliferation analysis, Ba/F3 KIF5B-RET; type: cell-based; conditions: Mus musculus, BaF3, 72 h; 3 days, CellTiter-Glo
Description: as §4, §5, §6

BaF3 FLT3-ITD cells = assay: Cell proliferation analysis, BaF3 FLT3-ITD; type: cell-based; conditions: Ba/F3 FLT3-ITD, 72 h; 3 days, CellTiter-Glo
Description: as §4, §5, §6

IC50 (ABL) [nM]	IC50 (ABL^T315I) [nM]	IC50 (Ret) [nM]	IC50 (RET^V804M) [nM]	IC50 (K562 cells) [nM]	IC50 (Ba/F3 BCR-ABL cells) [nM]	IC50 [1] [nM]	IC50 (Ba/F3 KIF5B-RET cells) [nM]	IC50 (BaF3 FLT3-ITD cells) [nM]	SMILES	IC50 (Ba/F3 parental cells) [nM]
1.89	27.5	0.25	23.1	0.16	4.75	101	26.4	67.7	Cc1ccc(NC(=O)c2ccnc(C(F)(F)F)c2)cc1C#Cc1cnc2c(Nc3cnn(C)c3)nccn12 [Example 3, N-(4-methyl-3-((8-((1-methyl-1H-pyrazol-4-yl)amino)imidazo[1,2-a]pyrazin-3-yl)ethynyl)phenyl)-2-(trifluoromethyl)isonicotinamide]	1340
3.24	4.28	0.37	1.42	0.76	12.8	25.2	4.56	1.14	Cc1ccc(C(=O)Nc2ccc(CN3CCN(C)CC3)c(C(F)(F)F)c2)cc1C#Cc1cnc2c(Nc3cnn(C)c3)ccnn12 [Example 15, 4-methyl-3-((8-((1-methyl-1H-pyrazol-4-yl)amino)imidazo[1,2-b]pyridazin-3-yl)ethynyl)-N-(4-((4-methylpiperazin-1-yl)methyl)-3-(trifluoromethyl)phenyl)benzamide]	280
